The source of these data is patent publication US8642265B2, “Compositions and methods for the detection of topoisomerase II complexes with DNA” (The Children's Hospital of Philadelphia, priority 2004, dated 2014).

The target in experiment [1] is T1, DNA topoisomerase II cleavage complexes in K562 cells (Homo sapiens, UniProt P11388).
T1 construct: endogenous in cells; host or cells: K562 cells
Kind of experiment: Modified ICE bioassay in K562 cells. The experiment is classed as cell-based. The conditions noted are these: for induction of DNA topoisomerase II cleavage complexes: 20 μM. On the procedure: (§1) After flash-freezing and thawing at 37° C., the DNA was sheared by passage through a 251/2 G needle. […] The pellet was dissolved in 200 μl of 10 mM Tris-HCl (pH 8.0) 1 mM EDTA buffer, the DNA was quantified and 5.6 μg of DNA was analyzed on a Western blot with a mouse anti-human DNA topoisomerase IIα antibody (DAKO, Glostrup, Denmark) to detect DNA topoisomerase IIα-bound DNA (11).
(§2) However, doxorubicin is an intercalative DNA topoisomerase II poison that induces DNA topoisomerase II cleavage with different sequence site-selectivity (Capranico et al., 1990) and that also is associated with leukemia as a treatment complication, albeit less often (Sandoval et al., 1993).

Experiment [2] has as its target T2, DNA topoisomerase II covalent complexes in KG1 cells (Homo sapiens, UniProt P11388).
T2 construct: endogenous in cells; host or cells: KG1 (KG-1) cells
The experiment in a line: Modified ICE bioassay in KG1 cells. In kind it is cell-based. The conditions noted are these: doxorubicin at 100 μM. The protocol: The assays were performed on CEM cells (FIG. 7A), K562 cells (FIGS. 7B and 7C), and KG-1 cells (FIG. 7D).
as §1, §2

Experiment [3] has as its target human DNA topoisomerase IIα (Homo sapiens, UniProt P11388). The experiment in a line: DNA topoisomerase II in vitro cleavage assay. The conditions noted are these: for cleavage at MLL bcr position 6588 over cleavage without drug (enzyme-only): drug at 20 μM, 10 min 37° C.
Experiment [4] addresses DNA topoisomerase II cleavage complexes in CEM cells (Homo sapiens, UniProt P11388). The experiment in a line: Modified ICE (in vivo complex of enzyme) bioassay in CEM cells. The conditions noted are these: 20 μM, 2 hours.
For experiment [5], the target named is T3, DNA topoisomerase II covalent complexes in ex vivo expanded CD34+ cells (Homo sapiens, UniProt P11388).
T3 construct: endogenous in cells; host or cells: primary human bone marrow CD34+ cells, expanded ex vivo
The experiment in a line: Modified ICE bioassay in ex vivo expanded CD34+ cells. The experiment is classed as cell-based. The following applies: 2 hours, etoposide 100 μM. The protocol: as §1

For experiment [6], the system named is ex vivo expanded CD34+ cells. The experiment in a line: Cell viability by Trypan Blue exclusion. The experiment is classed as cell-based, human. The conditions noted are these: etoposide 2 hours, same for untreated. The protocol: as §1
Cell viability assessed by Trypan blue exclusion was ˜70% for both conditions. As predicted in proliferating cells (6), native DNA topoisomerase II covalent complexes were detected in the untreated cells. […] The DNA topoisomerase IIα protein ran higher than its known molecular weight of 170 kDa, which is consistent with the presence of DNA bound to the enzyme.

For experiment [7], the target named is T4, DNA topoisomerase II cleavage complexes with the MLL bcr in CD34+ cells (Homo sapiens, UniProt P11388).
T4 construct: endogenous in cells; host or cells: primary human bone marrow CD34+ cells, expanded ex vivo
The experiment in a line: MLL bcr oligonucleotide microarray (XEOCHIP) of DNA topoisomerase II-bound DNA. The experiment is classed as cell-based. The conditions noted are these: 100 μM, Q-Q plot. An excerpt:
Employing XEOCHIP™ technology (Xeotron, Houston, Tex.), a first generation MLL bcr oligonucleotide array containing replicate slots of each of 162 probes was created. The 162 probes included 73 probes for the non-repetitive MLL bcr sequences, 8 probes for the Alu region between nucleotide positions 663-1779 in the MLL bcr, 57 probes for MLL exon 25 which is unaffected by the translocations, and 24 probes for 9 bacterial control genes (see Tables 2 and 3; Tables 4 and 5 provide another example of a series of oligonucleotides that can be employed in a microarray). The 8.3 kb MLL bcr is represented by replicates of each of the 73 50 mers at average intervals of 115 bases to span the bcr. Because it has been well documented in the literature that the printing, general hybridization conditions, and scanning of microarrays introduce systemic effects that are related to the position on the chip, replicates of each of the probes in the array have been spaced throughout the chip.
Primary CD34+ selected human bone marrow cells were obtained through the NHLBI or purchased commercially. The cells were expanded ex vivo using conditions optimized to promote minimal differentiation in order to increase cell numbers as required to generate a useful model system.
DOP of the immunoaffinity-purified DNA topoisomerase II cleavage complexes from the treated and untreated cells was performed exactly as was done with the reference sample. […] Dye-swap experiments were also performed.
GeneSpring (Silicon Genetics, Redwood City, Calif.) was employed as a computational tool to visualize and analyze the data from MLL bcr XEOCHIPS™ with either treated or untreated samples in one channel and the reference sample in the other.
DOP-amplified DNA from the DNA topoisomerase II cleavage complexes in treated or untreated cells on separate chips was labeled with ALEXA FLUOR® 546. The MLL bcr reference sample was labeled with ALEXA FLUOR® 647. The null hypothesis represented by the straight line is that there is no effect at any probe, whereas upward departure points are potential hotspots and downward departure points are potential coldspots.

Experiment [8] concerns the target T5, DNA topoisomerase II covalent complexes with MLL and other sequences in CD34+ cells (Homo sapiens, UniProt P11388).
T5 construct: endogenous in cells; host or cells: primary human bone marrow CD34+ cells, expanded ex vivo
The experiment in a line: Immunoaffinity purification, DOP amplification and real-time PCR of DNA topoisomerase IIα-bound DNA. The experiment is classed as cell-based. On the technique in general: Real-time PCR tracks product formation cycle by cycle.

Setting [9] is: 20 μM, additional 10 min at 75° C.

T4 sequence (P11388 whole entry, one chain of several): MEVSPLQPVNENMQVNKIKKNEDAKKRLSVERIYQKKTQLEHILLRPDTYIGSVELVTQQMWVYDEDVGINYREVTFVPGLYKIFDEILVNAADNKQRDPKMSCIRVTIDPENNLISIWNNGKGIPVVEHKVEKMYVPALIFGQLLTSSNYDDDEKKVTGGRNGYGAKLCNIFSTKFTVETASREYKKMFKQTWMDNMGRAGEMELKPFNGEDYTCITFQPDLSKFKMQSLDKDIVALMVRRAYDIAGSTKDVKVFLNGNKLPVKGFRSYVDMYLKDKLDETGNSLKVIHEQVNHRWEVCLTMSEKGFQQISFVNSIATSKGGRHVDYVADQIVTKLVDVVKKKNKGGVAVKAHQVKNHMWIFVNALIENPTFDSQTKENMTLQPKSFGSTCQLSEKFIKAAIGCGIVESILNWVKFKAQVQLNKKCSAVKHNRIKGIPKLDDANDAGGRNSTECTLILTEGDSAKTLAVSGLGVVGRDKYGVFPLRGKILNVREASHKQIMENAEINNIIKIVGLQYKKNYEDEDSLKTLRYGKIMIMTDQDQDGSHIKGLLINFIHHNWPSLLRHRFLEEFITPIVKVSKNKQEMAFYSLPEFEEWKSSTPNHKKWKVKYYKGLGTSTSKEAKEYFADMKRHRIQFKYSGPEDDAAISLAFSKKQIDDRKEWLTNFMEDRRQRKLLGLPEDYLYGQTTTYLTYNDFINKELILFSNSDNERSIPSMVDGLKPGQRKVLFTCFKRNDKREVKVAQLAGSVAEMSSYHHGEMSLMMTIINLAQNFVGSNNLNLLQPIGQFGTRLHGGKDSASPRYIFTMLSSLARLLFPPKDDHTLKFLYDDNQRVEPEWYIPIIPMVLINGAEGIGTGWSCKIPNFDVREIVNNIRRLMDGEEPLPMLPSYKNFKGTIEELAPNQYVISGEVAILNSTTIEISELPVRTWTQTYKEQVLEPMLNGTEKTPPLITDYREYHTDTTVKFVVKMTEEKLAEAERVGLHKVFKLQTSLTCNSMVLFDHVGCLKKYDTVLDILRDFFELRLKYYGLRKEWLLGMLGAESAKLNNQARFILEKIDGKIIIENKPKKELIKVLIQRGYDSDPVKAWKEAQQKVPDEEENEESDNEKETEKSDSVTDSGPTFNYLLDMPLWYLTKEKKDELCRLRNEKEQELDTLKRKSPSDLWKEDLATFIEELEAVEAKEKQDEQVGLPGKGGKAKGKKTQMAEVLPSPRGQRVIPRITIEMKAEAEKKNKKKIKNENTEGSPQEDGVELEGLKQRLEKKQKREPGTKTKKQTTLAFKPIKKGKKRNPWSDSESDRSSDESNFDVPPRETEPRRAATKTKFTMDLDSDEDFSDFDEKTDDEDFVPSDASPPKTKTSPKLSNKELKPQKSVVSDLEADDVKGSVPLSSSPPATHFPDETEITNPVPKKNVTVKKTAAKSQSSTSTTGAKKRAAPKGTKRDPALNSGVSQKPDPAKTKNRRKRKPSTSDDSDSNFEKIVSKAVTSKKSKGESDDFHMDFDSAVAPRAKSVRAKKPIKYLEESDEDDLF
Sequence of DNA topoisomerase II cleavage complexes in CEM cells (P11388 whole entry, one chain of several): as above
Sequence of human DNA topoisomerase IIα (P11388 whole entry): as the sequence (P11388 whole entry, one chain of several) above
T1 sequence (P11388 whole entry, one chain of several): as above
T3 sequence (P11388 whole entry, one chain of several): as above
T2 sequence (P11388 whole entry, one chain of several): as above
T5 sequence (P11388 whole entry, one chain of several): as above

In the case of `COc1cccc2c1C(=O)c1c(O)c3c(c(O)c1C2=O)C[C@@](O)(C(=O)CO)C[C@@H]3O[C@H]1C[C@H](N)[C@H](O)[C@H](C)O1` [doxorubicin], the “induction of DNA topoisomerase II cleavage complexes” value in experiment [1] is reported as “no induction”. Further, in experiment [2], the “induction of DNA topoisomerase II covalent complexes” value is reported as “induced DNA II covalent complexes”. Further, the “cleavage over enzyme-only cleavage at MLL bcr positions 4675 and 4673 and GAS7 position 1238” value in experiment [3] (0.01 μM) is recorded as “quantifiably enhanced cleavage”. Besides, in experiment [3] (0.01 μM to 0.5 μM), the “effect on cleavage at MLL bcr position 6588 over a range of concentrations” value is given as “dose-dependent increases over enzyme-only cleavage”. Besides, the “cleavage at MLL 4675, 4673 and GAS7 1238 at high concentration” value in experiment [3] (20 μM) is reported as “complete diminution”. In experiment [3] (20 μM or lower concentrations, AF-4 intron 3 substrate), the “cleavage at AF-4 intron 3 position 7126” value is reported as “no detectable cleavage”. Besides, in experiment [3] (AF-4 intron 3 substrate), the “concentration at which cleavage at AF-4 positions 7111, 7114 and 7119 began to decrease” value stood at 0.5 µM; the “effect on cleavage at AF-4 intron 3 positions 7111, 7114 and 7119 over a range of concentrations” value is reported as “dose-dependent increases in cleavage stimulation over enzyme-only cleavage”. Also, the “concentration at which cleavage enhancement at MLL 4675, 4673 and GAS7 1238 began to decrease” value in experiment [3] (MLL and GAS7 substrates) amounted to 0.1 µM. Moreover, in experiment [3] (MLL intron 8 substrate), the “concentration at which cleavage enhancement at MLL bcr position 6588 began to decrease” value was 2.5 µM and the “cleavage at MLL bcr position 6588 over cleavage without drug (enzyme-only)” value is 0.4 fold. Besides, the “effect on cleavage at MLL bcr positions 6587 and 6589” value in experiment [3] (all concentrations tested) is “only catalytic inhibition”. The “induction of DNA topoisomerase II cleavage complexes” value in experiment [4] is recorded as “no induction”.

`COc1cc([C@@H]2c3cc4c(cc3[C@@H](O[C@@H]3O[C@@H]5CO[C@@H](C)O[C@H]5[C@H](O)[C@H]3O)[C@H]3COC(=O)[C@H]23)OCO4)cc(O)c1O` [etoposide catechol]: the “formation of DNA topoisomerase II covalent complexes versus untreated cells” value in experiment [5] was “increased formation of topoisomerase-DNA cleavage complexes”. Besides, in experiment [3] (20 μM, AF-4 intron 3 substrate), the “cleavage at AF-4 intron 3 position 7126 relative to the strongest enzyme-only cleavage in the substrate (position 7114)” value was 5.9 fold and the “rank in relative intensity of cleavage at AF-4 position 7126 among all cleavage sites” value is “first”. Besides, in experiment [3] (MLL intron 8 substrate), the “cleavage at MLL bcr position 6588 over cleavage without drug (enzyme-only)” value was found to be 4.4 fold. Further, in experiment [4], the “amount of cleavage complexes induced compared with etoposide” value is given as “comparable in amount to the parent drug” and the “induction of DNA topoisomerase II cleavage complexes” value is listed as “significant induction”.

On to `COC1=CC(C2c3cc4c(cc3C(O[C@@H]3O[C@@H]5COC(C)O[C@H]5[C@H](O)[C@H]3O)C3COC(=O)C23)OCO4)=CC(=O)C1=O` (stereo partly drawn) [etoposide quinone], for which, in experiment [1], the “induction of DNA topoisomerase II cleavage complexes” value is reported as “Induction of DNA cleavage complexes was also observed”. Moreover, in experiment [1] (2 hours), the “concentration dependence of induction of DNA topoisomerase II cleavage complexes” value is “concentration dependent increase”. In addition, in experiment [3] (20 μM, AF-4 intron 3 substrate), the “cleavage at AF-4 intron 3 position 7126 relative to the strongest enzyme-only cleavage in the substrate (position 7114)” value worked out at 3.4 fold and the “rank in relative intensity of cleavage at AF-4 position 7126 among all cleavage sites” value was 5th. The “rank of cleavage at MLL bcr position 6588 among cleavage sites in the substrate” value in experiment [3] (20 μM, MLL intron 8 substrate) is recorded as 3rd. Moreover, the “cleavage at MLL bcr position 6588 over cleavage without drug (enzyme-only)” value in experiment [3] (MLL intron 8 substrate) is 9.8 fold. Besides, the “induction of DNA topoisomerase II cleavage complexes” value in experiment [4] was “significant induction”.

`COc1cc([C@@H]2c3cc4c(cc3[C@@H](O[C@@H]3O[C@@H]5CO[C@@H](C)O[C@H]5[C@H](O)[C@H]3O)[C@H]3COC(=O)[C@H]23)OCO4)cc(OC)c1O` [etoposide]: in experiment [1], the “induction of DNA topoisomerase II cleavage complexes” value was “Induction of DNA cleavage complexes was also observed”. The “induction of DNA topoisomerase II covalent complexes” value in experiment [2] is listed as “induced DNA II covalent complexes”. Further, the “formation of DNA topoisomerase II covalent complexes versus untreated cells” value in experiment [5] is reported as “increased formation of DNA topoisomerase II covalent complexes”. For the same molecule, the “cell viability assessed by Trypan blue exclusion” value in experiment [6] is listed as around 70%. In experiment [7], the “potential coldspots for DNA topoisomerase II cleavage complexes (array probes), treated vs untreated” value was “probes 2-28, 1-30, 1-18, and 1-15”; the “potential hotspots for DNA topoisomerase II cleavage complexes (array probes), treated vs untreated” value is “probes 1-41 and 1-51”. Further, in experiment [3] (setting [9]), the “heat stability of cleavage at AF-4 intron 3 position 7126” value was “especially heat-stable” and the “heat stability of cleavage complexes at MLL bcr position 6588” value is listed as “remained detectable after heating”. For the same molecule, the “cleavage at MLL bcr position 6588 over cleavage without drug (enzyme-only)” value in experiment [3] (MLL intron 8 substrate) is 7.9 fold. Moreover, the “induction of DNA topoisomerase II cleavage complexes” value in experiment [4] is “significant induction”.

With `O=c1c(-c2ccc(O)cc2)coc2cc(O)cc(O)c12` [genistein], the “real-time PCR products, MLL intron 7-exon 8 amplicon” value in experiment [8] is “real-time PCR products that were detected”. For the same molecule, in experiment [7], the “potential coldspots for DNA topoisomerase II cleavage complexes (array probes), treated vs untreated” value is “probes 1-31 (SEQ ID NO: 27), 2-50 (SEQ ID NO: 162), 1-74 (SEQ ID NO: 62), 2-28 (SEQ ID NO: 34), 1-10 (SEQ ID NO: 83), and 1-22 (SEQ ID NO: 71)”; the “potential hotspots for DNA topoisomerase II cleavage complexes (array probes), treated vs untreated” value is “Probes 1-68 (SEQ ID NO: 157), 1-41 (SEQ ID NO: 49), 1-51 (SEQ ID NO: 141), and 1-33 (SEQ ID NO: 132)”.
